As usually defined, the melting point is the temperature, or range, at which the solid turns liquid. `CCOC(=O)c1cn(Cc2ccccc2)nc1OCc1ccc(OCc2nc(-c3ccco3)oc2C)c(Br)c1` [Example 55, ethyl 1-benzyl-3-[(3-bromo-4-{[2-(2-furyl)-5-methyl-1,3-oxazol-4-yl]methoxy}benzyl)oxy]-1H-pyrazole-4-carboxylate] came in with a melting point of 158 to 159 °C.

`CCOC(=O)c1cn(Cc2ccccc2)nc1OCc1ccc(OCc2nc(-c3ccco3)oc2C)c(-c2ccccc2)c1` [Example 56, ethyl 1-benzyl-3-[(4-{[2-(2-furyl)-5-methyl-1,3-oxazol-4-yl]methoxy}-3-phenylbenzyl)oxy]-1H-pyrazole-4-carboxylate] registered a melting point of 134 to 135 °C.

Molecule `Cc1oc(-c2ccco2)nc1COc1ccc(COc2nn(Cc3ccccc3)cc2C(=O)O)cc1-c1ccccc1` [Example 57, 1-benzyl-3-[(4-{[2-(2-furyl)-5-methyl-1,3-oxazol-4-yl]methoxy}-3-phenylbenzyl)oxy]-1H-pyrazole-4-carboxylic acid] showed a melting point of 181 to 182 °C.

On to `Cc1oc(-c2ccco2)nc1COc1ccc(COc2nn(Cc3ccccc3)cc2C=O)cc1-c1ccccc1` [Example 59, 1-benzyl-3-[(4-{[2-(2-furyl)-5-methyl-1,3-oxazol-4-yl]methoxy}-3-phenylbenzyl)oxy]-1H-pyrazole-4-carbaldehyde], for which the melting point lay within 122 to 123 °C.

`CCOC(=O)c1cn(Cc2ccccc2)nc1OCc1ccc(OCc2nc(-c3ccco3)oc2C)c(C)c1` [Example 60, ethyl 1-benzyl-3-[(4-{[2-(2-furyl)-5-methyl-1,3-oxazol-4-yl]methoxy}-3-methylbenzyl)oxy]-1H-pyrazole-4-carboxylate] returned a melting point of 120 to 121 °C.

As for `Cc1cc(COc2nn(Cc3ccccc3)cc2C(=O)O)ccc1OCc1nc(-c2ccco2)oc1C` [Example 61, 1-benzyl-3-[(4-{[2-(2-furyl)-5-methyl-1,3-oxazol-4-yl]methoxy}-3-methylbenzyl)oxy]-1H-pyrazole-4-carboxylic acid], the melting point lay in the range of 176 to 177 °C.

Take `Cc1cc(COc2nn(Cc3ccccc3)cc2C=O)ccc1OCc1nc(-c2ccco2)oc1C` [Example 63, 1-benzyl-3-[(4-{[2-(2-furyl)-5-methyl-1,3-oxazol-4-yl]methoxy}-3-methylbenzyl)oxy]-1H-pyrazole-4-carbaldehyde]: the melting point fell in the range of 121 to 122 °C.

`CCOC(=O)c1cn(-c2ccccc2)nc1OCc1oc2cc(OCc3nc(-c4ccccc4)oc3C)ccc2c1-c1ccccc1` [Example 64, ethyl 3-({6-[(5-methyl-2-phenyl-1,3-oxazol-4-yl)methoxy]-3-phenyl-1-benzofuran-2-yl}methoxy)-1-phenyl-1H-pyrazole-4-carboxylate]: the melting point lay within 143 to 144 °C.

On to `Cc1oc(-c2ccccc2)nc1COc1ccc2c(-c3ccccc3)c(COc3nn(-c4ccccc4)cc3C(=O)O)oc2c1` [Example 65, 3-({6-[(5-methyl-2-phenyl-1,3-oxazol-4-yl)methoxy]-3-phenyl-1-benzofuran-2-yl}methoxy)-1-phenyl-1H-pyrazole-4-carboxylic acid], for which the melting point is 200 to 201 °C.

`Cc1oc(-c2ccccc2)nc1COc1ccc2c(-c3ccccc3)c(COc3nn(-c4ccccc4)cc3CO)oc2c1` [Example 66, [3-({6-[(5-methyl-2-phenyl-1,3-oxazol-4-yl)methoxy]-3-phenyl-1-benzofuran-2-yl}methoxy)-1-phenyl-1H-pyrazol-4-yl]methanol] displayed a melting point of 118 to 119 °C.

As to `Cc1oc(-c2ccccc2)nc1COc1ccc2c(-c3ccccc3)c(COc3nn(-c4ccccc4)cc3C=O)oc2c1` [Example 67, 3-({6-[(5-methyl-2-phenyl-1,3-oxazol-4-yl)methoxy]-3-phenyl-1-benzofuran-2-yl}methoxy)-1-phenyl-1H-pyrazole-4-carbaldehyde], the melting point lay within 176 to 177 °C.

As to `CCOC(=O)c1cn(Cc2ccccc2)nc1OCc1ccc(OCc2nc(-c3ccco3)oc2C)c(CC)c1` [Example 68, ethyl 1-benzyl-3-[(3-ethyl-4-{[2-(2-furyl)-5-methyl-1,3-oxazol-4-yl]methoxy}benzyl)oxy]-1H-pyrazole-4-carboxylate], the melting point was in the range of 125 to 126 °C.

Turning to `CCc1cc(COc2nn(Cc3ccccc3)cc2C(=O)O)ccc1OCc1nc(-c2ccco2)oc1C` [Example 69, 1-benzyl-3-[(3-ethyl-4-{[2-(2-furyl)-5-methyl-1,3-oxazol-4-yl]methoxy}benzyl)oxy]-1H-pyrazole-4-carboxylic acid], the melting point lay in the range of 173 to 174 °C.

Turning to `CCc1cc(COc2nn(Cc3ccccc3)cc2C=O)ccc1OCc1nc(-c2ccco2)oc1C` [Example 71, 1-benzyl-3-[(3-ethyl-4-{[2-(2-furyl)-5-methyl-1,3-oxazol-4-yl]methoxy}benzyl)oxy]-1H-pyrazole-4-carbaldehyde], the melting point was in the range of 128 to 129 °C.

As for `COc1cc(COc2nn(-c3ccccc3)cc2C(=O)O)ccc1OCc1nc(-c2ccco2)oc1C` [Example 73, 3-[(4-{[2-(2-furyl)-5-methyl-1,3-oxazol-4-yl]methoxy}-3-methoxybenzyl)oxy]-1-phenyl-1H-pyrazole-4-carboxylic acid], the melting point was 184 to 185 °C.

`COc1cc(COc2nn(-c3ccccc3)cc2C(N)=O)ccc1OCc1nc(-c2ccco2)oc1C` [Example 74, 3-[(4-{[2-(2-furyl)-5-methyl-1,3-oxazol-4-yl]methoxy}-3-methoxybenzyl)oxy]-1-phenyl-1H-pyrazole-4-carboxamide] returned a melting point of 175 to 176 °C.

The molecule `CCOC(=O)/C=C/c1cn(-c2ccccc2)nc1OCc1ccc(OCc2nc(-c3ccco3)oc2C)c(OC)c1` [Example 78, ethyl (2E)-3-{3-[(4-{[2-(2-furyl)-5-methyl-1,3-oxazol-4-yl]methoxy}-3-methoxybenzyl)oxy]-1-phenyl-1H-pyrazol-4-yl}-2-propenoate] returned a melting point of 177 to 178 °C.

As for `COc1cc(COc2nn(-c3ccccc3)cc2/C=C/C(=O)O)ccc1OCc1nc(-c2ccco2)oc1C` [Example 79, (2E)-3-{3-[(4-{[2-(2-furyl)-5-methyl-1,3-oxazol-4-yl]methoxy}-3-methoxybenzyl)oxy]-1-phenyl-1H-pyrazol-4-yl}-2-propenoic acid], the melting point was in the range of 204 to 205 °C.

For `Cc1oc(-c2ccccc2)nc1COc1ccc(COc2nn(-c3ccccc3)cc2C=O)cc1` [Example 80, 3-({4-[(2-phenyl-5-methyl-1,3-oxazol-4-yl)methoxy]benzyl}oxy)-1-phenyl-1H-pyrazole-4-carbaldehyde], the melting point fell in the range of 152 to 153 °C.

In the case of `Cc1oc(-c2ccccc2)nc1COc1ccc(COc2nn(-c3ccccc3)cc2CO)cc1` [Example 81, [3-({4-[(2-phenyl-5-methyl-1,3-oxazol-4-yl)methoxy]benzyl}oxy)-1-phenyl-1H-pyrazol-4-yl]methanol], the melting point lay within 118 to 119 °C.

Take `CCOC(=O)/C=C/c1cn(-c2ccccc2)nc1OCc1ccc(OCc2nc(-c3ccccc3)oc2C)cc1` [Example 82, ethyl (2E)-3-[3-({4-[(2-phenyl-5-methyl-1,3-oxazol-4-yl)methoxy]benzyl}oxy)-1-phenyl-1H-pyrazol-4-yl]-2-propenoate]: the melting point was in the range of 154 to 155 °C.
